# Measurements as given in publication PMC8052528 (Protein & Cell, 2021).
# Tests used:
# SARS-CoV-2 = assay type: cell-based
# [1] = Phase 1 and Phase 2 clinical trials; ref Satoh et al., 2009; Kelly et al., 2013; cited from earlier work
SMILES,intracellular NP level versus control group (10 μmol/L chloroquine) (SARS-CoV-2),tolerability in humans [1]
Cc1coc2c1C(=O)C(=O)c1c-2ccc2c(C)cccc12 [tanshinone I],comparable NP levels with the control group,–
C[C@H]1COC2=C1C(=O)C(=O)c1c2ccc2c1CCCC2(C)C [cryptotanshinone],comparable NP levels with the control group,–
COCCn1c2c([n+](Cc3cnccn3)c1C)C(=O)c1ccccc1C2=O [YM155],–,well tolerated
